Results published in patent publication US8143241B2, “DNA damage repair inhibitors for treatment of cancer” (Kudos Pharmaceuticals Limited, priority 2003, dated 2012).

Assays:
MCF7-3.23 cells = experiment: Clonal survival, BRCA1 silenced MCF7-3.23 cells; format: cell-based, human
Source text: (§1) Log concentration of inhibitor is plotted against log surviving fraction of cells.
(§2) The MCF7 scrambled and MCF7-3.23 cell lines were generated by stable transfection of MCF7 mammary adenocarcinoma cells with gene specific pSUPER constructs. Gene specific pSUPER constructs were generated expressing the following RNAi target sequences: (i) human BRCA1 (SEQ ID NO:3) 5r-[…]-3′ (ii) scrambled control 5′-(SEQ ID NO:4) […]-3′. A 1.8 kb fragment containing the human EF1a promoter and the blasticidin resistance gene (bsd) was subcloned from pEFBsd (Invitrogen) into the SapI site of the resultant pSUPER constructs, generated pSUPER-Bsd-BRCA1 and pSUPER-Bsd-scrambled. MCF7 cells were transfected with these plasmids using FuGene6 (Roche) according to the manufacturers instructions. After selection in blasticidin, resistant clones were assessed by real time PCR for silencing of BRCA1 mRNA (Egawa et al Oncology. 2001; 61(4): 293-8; Egawa et al Int J. Cancer. 2001 Jul. 20; 95(4):255-9). Clones with reduced levels of BRCA1 mRNA were cultured (under blasticidin selection) over 8 passages and the real-time assay repeated.

[1] = tested on: pSUPER-CFP-CONTROL transfected HeLa cells; experiment: Clonogenic survival, control transfected HeLa cells; format: cell-based, human; conditions: constant exposure 12-14 days, read-out: SF50 (the source's name)
Source text: (§3) Clonogenic survival curves of transfected HeLa cells under constant exposure to a range of concentrations of PARP inhibitor (KU0058684) for 12-14 days. […] SF50 for pSUPER-CFP-CONTROL transfected cells is >1×10^−5 M and is 1×10^−6 M for pSUPER-CFP-17/19/23 transfected cells.
(§4) HeLa cells were transfected using FuGene (Roche, USA) according to the manufacturers instructions. For clonogenic survival assays, cells were co-transfected in 6 well plates with pSUPER and a vector expressing blasticidin resistance (pEF-Bsd, Invitrogen, USA) at a ratio of 10:1 (pSUPER: pEF-Bsd). Twenty-four hours after transfection, cells were plated into replica plates and this was followed by treatment with PARP inhibitors and blasticidin 48 hours post transfection.

[2] = tested on: RAD51 siRNA transfected HeLa cells; experiment: Clonogenic survival, HeLa cells with RAD51 RNAi silencing; format: cell-based, human; conditions: pSUPER-CFP-17/19/23 transfected HeLa cells, constant exposure 12-14 days; read-out: SF50 (the source's name)
Source text: as §3, §4

VC8-BAC cells = experiment: Neutral comet assay, complemented VC8-BAC line; format: cell-based, chinese hamster; conditions: 30-hour exposure to 1 μM
Experimental: VC8 and VC8-BAC cells were plated 24 hours prior to treatment with 1 μM KU0058684 for 30 hours. All further work was carried out in the dark. Cells were washed with and scraped into PBS prior to Comet analysis as described (Lemay and Wood, 1999). Cells suspended in LMP agarose (0.5% in PBS) were spread onto Comet slides (Trevigen, Gaithersburg) and placed at 4 C until set, prior to lysis for 45 mins in 2.5M NaCl, 100 mM EDTA, 10 mM Tris Base, 1% sodium lauryl sarcosinate, 0.01% Triton X-100. Slides were transferred to TBE for 5 mins prior to electrophoresis at 18V for 15 mins. Slides were then fixed in 100% ethanol for 5 mins and air dried before the addition of SYBR green dye and visualisation by epifluorescence using fluorescien filters (Nikon). Comets were analysed using the Comet software module of the Lucia G imaging package as supplied by Nikon. 50 comets per data point were examined for each of three independent experiments and the mean tail moment calculated.

PARP-1 = PARP-1 (Homo sapiens, UniProt P09874); experiment: PARP-1 enzyme activity inhibition; format: biochemical; conditions: read-out: IC50 against PARP-1 enzyme activity
Sequence of PARP-1 (P09874 whole entry): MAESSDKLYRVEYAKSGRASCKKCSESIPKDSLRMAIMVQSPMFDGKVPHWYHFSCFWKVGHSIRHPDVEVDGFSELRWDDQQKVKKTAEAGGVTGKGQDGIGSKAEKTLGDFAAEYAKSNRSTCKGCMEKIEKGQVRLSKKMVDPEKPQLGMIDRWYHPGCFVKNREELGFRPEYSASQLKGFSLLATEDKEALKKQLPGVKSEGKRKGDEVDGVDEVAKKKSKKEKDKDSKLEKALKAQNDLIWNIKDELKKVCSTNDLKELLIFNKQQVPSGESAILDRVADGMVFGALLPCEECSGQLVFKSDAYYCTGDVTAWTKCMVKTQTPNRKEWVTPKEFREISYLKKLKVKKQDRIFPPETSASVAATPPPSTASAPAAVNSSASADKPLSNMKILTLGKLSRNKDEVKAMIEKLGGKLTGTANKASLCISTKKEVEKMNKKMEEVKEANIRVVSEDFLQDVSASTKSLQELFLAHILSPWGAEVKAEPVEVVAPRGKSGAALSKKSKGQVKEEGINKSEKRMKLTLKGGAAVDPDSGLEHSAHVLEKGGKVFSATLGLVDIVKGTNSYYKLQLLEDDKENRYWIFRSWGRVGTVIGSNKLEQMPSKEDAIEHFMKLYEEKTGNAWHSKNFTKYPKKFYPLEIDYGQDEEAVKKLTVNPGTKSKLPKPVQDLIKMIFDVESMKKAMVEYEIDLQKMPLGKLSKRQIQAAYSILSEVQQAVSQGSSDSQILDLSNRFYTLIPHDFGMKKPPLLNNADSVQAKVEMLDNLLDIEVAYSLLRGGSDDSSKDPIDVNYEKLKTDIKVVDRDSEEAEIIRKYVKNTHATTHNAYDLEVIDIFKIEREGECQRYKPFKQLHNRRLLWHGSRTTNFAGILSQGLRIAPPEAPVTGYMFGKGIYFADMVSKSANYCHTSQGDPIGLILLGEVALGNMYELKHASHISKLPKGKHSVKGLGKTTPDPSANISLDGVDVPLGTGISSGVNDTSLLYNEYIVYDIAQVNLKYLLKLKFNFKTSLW
Experimental: Chemical inhibitors were dissolved in DMSO at 10 mM and stored at −20° C. in the dark.

Brca2 deficient ES cells = experiment: Clonogenic assay, continuous exposure, Brca2 deficient ES cells; format: cell-based, mouse
Experimental: (§5) For measurement of sensitivity to chemical inhibitors, cell cultures e.g. ES cells or mouse embryonic fibroblasts, in exponential growth were trypsinised and seeded at various densities in 6-well plates onto confluent monolayer of Mitomycin C (MMC) inactivated mouse embryonic fibroblasts and, where appropriate, treated with inhibitors after 18 h. For continuous exposure, cells were re-fed every 4 days with fresh medium and inhibitor. For timed exposures, inhibitor was added for the specified period then cells were washed and re-fed with fresh medium. After 10-14 days, cells were washed with PBS, fixed in methanol and stained with crystal violet. Colonies containing greater than approximately 50 cells were counted. Experiments were performed at least three times in triplicate.

wild-type ES cells = experiment: Rad51 focus formation, wild-type ES cells; format: cell-based, mouse; conditions: 48 hours
Experimental: ES cells were cultured for 48 h in various concentrations of PARP inhibitor fixed in 4% paraformaldehyde in PBS and permeabilised with 0.2% Triton X100 in PBS. Cells were stained with a 1:100 dilution of rabbit anti-Rad51 ployclonal antibody (Ab 551922, BD-Pharmingen, Oxford, UK). After washing, the primary antibody was visualised with Alexa Fluor-555 goat anti-rabbit IgG (Alexa) and nuclei with TO-PRO-3 iodide (Molecular Probes). Rad51 foci and γH2Ax foci were visualised with and quantified using a Leica TCS-SP2 confocal microscope.
Wild-type, and Brca1 and Brca2 defective ES cells were exposed to differing concentrations of KU0058684 for 48 hours. Cells were then fixed and stained for RAD51 foci as described by Tarsounas (Tarsounas M et al Oncogene. 2003 22(8): 1115-23).

[3] = tested on: Brca1 and Brca2 wild type and mutant ES cells; experiment: FACS analysis of cell cycle arrest (DNA content, phospho-histone H3); format: cell-based, mouse
Experimental: For DNA content measurement, cells were fixed in 70% ethanol, incubated with Rnase A and propidium iodide (PI) and analysed with a FACSCalibur (Becton Dickinson). For phospho-Histone H3 analysis, cells were fixed in 70% ethanol, permeabilised with 0.25% triton X-100, incubated with anti-phospho-histone H3 antibody (Upstate Biotechnology) for 3 hours, and then with FITC-anti rabbit IgG (Serotec) for 30 minutes.
Cells were exposed with KU0058684 for various periods then labelled with BrdU and the proportion of cells in each phase of the cell cycle. […] To further characterise this arrest, cells were analysed for both DNA content and for phosphorylated Histone H3, an M phase marker. […]

Brca1 deficient ES cells = experiment: Clonogenic assay, continuous exposure, Brca1 deficient ES cells; format: cell-based, mouse
Experimental: as §5

MCF7-scrambled cells = experiment: Clonal survival, BRCA1 wild-type MCF7-scrambled cells; format: cell-based, human; conditions: continuous exposure 12-14 days
Source text: as §1, §2

Question: Which results are given for `O=C1CCC(=O)N1c1cc(Cc2n[nH]c(=O)c3ccccc23)ccc1F` [KU0058684]?
Answer: sensitivity of MCF7-3.23 cells compared with MCF7-scrambled cells (MCF7-3.23 cells): significantly more sensitive; sensitivity (clonal survival) (MCF7-3.23 cells; MCF7-3.23, continuous exposure 12-14 days): both cell lines were sensitive; IC50 [1]: > 10000 nM; IC50 [2]: 1000 nM; increase in tail moment (VC8-BAC cells): no significant increase; IC50 (PARP-1): 3.2 nM; IC50 (Brca2 deficient ES cells; Brca2 deficient ES cells, continuous exposure, read-out: SF50 (dosage at which 50% of cells survived)): 15 nM; enhanced sensitivity compared to wild-type (Brca2 deficient ES cells; Brca2 mutant cells vs wild-type): 133 fold; sensitivity of Brca2 deficient cells compared to otherwise isogenic cells (Brca2 deficient ES cells; clonogenic assay): extremely sensitive; Rad51 foci formation (wild-type ES cells): caused Rad51 foci formation in a dose-dependent fashion; cell cycle arrest (DNA content, FACS) [3]: profound arrest of cells with a tetraploid DNA content; phase of arrest (phospho-histone H3 labelling) [3]: majority of cells were arrested in G2; IC50 (Brca1 deficient ES cells; Brca1 deficient ES cells, continuous exposure, read-out: SF50 (dosage at which 50% of cells survived)): 35 nM; enhanced sensitivity compared to wild-type (Brca1 deficient ES cells; Brca1 mutant cells vs wild-type): 57 fold; sensitivity of Brca1 deficient cells compared to otherwise isogenic cells (Brca1 deficient ES cells; clonogenic assay): extremely sensitive; sensitivity (clonal survival) (MCF7-scrambled cells): both cell lines were sensitive
